# Assay results as given in patent publication US5767268A, “Sulfuric acid esters of amino sugars” (Hoffmann-La Roche Inc., priority 1995, dated 1998).
# Where a name gives a salt, the structure may show the parent alone. Read-outs that look alike come from different tables or passages of the source.
# How the values were obtained:
# thrombin = target: T1, thrombin (Homo sapiens, UniProt P00734); assay type: biochemical
# T1 construct: purchased Roche Basle (Thrombin Reagent)
# Method: (§1) Inhibition of thrombin or Factor Xa in the Chromogen Substrate Test (Teien et al., Thrombosis Research 10, 399-410 (1977)): The determination was effected in a Cobas-Bio centrifugal automatic spectrophotometer. The buffer solution used consisted of 50 mM Tris buffer, 180 mM NaCl, 7.5 mM EDTA Na2, 1% PEG 6000 and 0.02% Tween 80, pH 8.4. The test solution consisted of 50 μl of buffer, 30 μl of antithombin III (1U/ml, Kabi Diagnostica) and 20 μl of plasma which contained various concentrations of test compounds. 30 μl of sample solution and 20 μl of water with 180 μl of thrombin (1U/ml, Thrombin Reagent Roche Basle) were added to the test cuvette in the automatic analyzer. After incubation at 37° C. for 240 seconds, 60 μl of S-2238 (H-D-Phe-Pip-Arg-NH.pNA, Kabi Diagnostica, Mondal, Sweden, 0.75 mM in water) and 20 μl of water were added. The liberation of pNA (p-nitro-aniline) was followed during 60 seconds at 405 nm in 10 second intervals in comparison to water as the blank.
# rat smooth muscle cells = experiment: Antiproliferative activity (ri, relative to heparin) in rat smooth muscle cells; assay type: cell-based; set-up: key: growth inhibition relative to heparin at 100 μg/ml, same experiment; settings: 100 μg/ml, 48 h, relative to heparin at 100 μg/ml in the same experiment
# Method: Antiproliferative Activity
# The antiproliferative activity of a substance is expressed as the ri value which is a comparative value to the corresponding activity of heparin and which was determined in cell cultures as follows: rat smooth muscle cells were applied to cell culture plates in a density of 8×10^3 cells/well (medium: DMEM with 10% FCS. Cultivation at 37° C. and 5% CO2). After 4 hours, the number of adhered cells was determined and the substances to be tested (100 μg/ml, dissolved in H2 O) were added. […] Subsequently, the cells were incubated for 48 h. and thereafter the cell count was determined once more.
# The inhibition i of the cell growth, that is, the reduction in the growth rate of the cells in percent compared to the control, was calculated from these values. [formula] the growth rate μbeing calculated as [formula] in which Z is the number of cells and d is the time in days.
# Finally, ri --the relative inhibitory activity--which expresses the activity of a substance (at 100 μg/ml) in comparison to the activity of heparin in the same concentration in the same experiment, was calculated: [formula] Blood Coagulation Inhibition
# Factor Xa = target: T2, Factor Xa (Bos taurus, UniProt P00743); experiment: Blood coagulation inhibition: inhibition of Factor Xa in the Chromogen Substrate Test; assay type: biochemical
# T2 sequence (P00743 41-180 limits assumed): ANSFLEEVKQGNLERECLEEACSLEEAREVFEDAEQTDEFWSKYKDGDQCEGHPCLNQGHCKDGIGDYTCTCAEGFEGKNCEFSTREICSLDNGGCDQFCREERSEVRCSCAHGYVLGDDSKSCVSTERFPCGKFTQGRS
# Method: as §1
# The inhibition of Factor Xa was measured in the same manner using a solution of Factor Xa (2.8 nkat/ml and 2 mM S-2222 (Bz-CO-Ile-Glu-Arg-NH.pNA, Kabi Diagnostica) in water in place of thrombin and, respectively, S-2238.
# [1] = read-out: Anticoagulative Activity IC50 Thrombin; with antithrombin III and plasma, S-2238 substrate, 37° C., pH 8.4
# [2] = read-out: Anticoagulative Activity IC50 Factor Xa; with antithrombin III and plasma, S-2222 substrate
# [3] = with antithrombin III and plasma, S-2238 substrate, 37° C., pH 8.4; read-out: Anticoagulative Activity IC50 Thrombin
# [4] = with antithrombin III and plasma, S-2222 substrate; read-out: Anticoagulative Activity IC50 Factor Xa
# [5] = with antithrombin III and plasma, S-2238 substrate, 37° C., pH 8.4
# [6] = with antithrombin III and plasma, S-2222 substrate
IC50 (thrombin; [3]) [µM],IC50 (Factor Xa; [4]) [µM],Molecule,IC50 (thrombin; [1]) [µM],Antiproliferative Activity ri (relative inhibitory activity versus heparin) (rat smooth muscle cells),IC50 (Factor Xa; [2]) [µM],Anticoagulative Activity IC50 Thrombin (thrombin; [5]) [µg/mL],Anticoagulative Activity IC50 Factor Xa (Factor Xa; [6]) [µg/mL]
,,"O=C(NC[C@H]1O[C@H](OCc2ccccc2)[C@H](NC(=O)c2ccc(NC[C@H](OS(=O)(=O)O)[C@@H](OS(=O)(=O)O)[C@H](OS(=O)(=O)O)[C@@H](COS(=O)(=O)O)OS(=O)(=O)O)c([N+](=O)[O-])c2)[C@@H](OS(=O)(=O)O)[C@@H]1OS(=O)(=O)O)c1cc(C(=O)NC[C@H]2O[C@H](OCc3ccccc3)[C@H](NC(=O)c3ccc(NC[C@H](OS(=O)(=O)O)[C@@H](OS(=O)(=O)O)[C@H](OS(=O)(=O)O)[C@@H](COS(=O)(=O)O)OS(=O)(=O)O)c([N+](=O)[O-])c3)[C@@H](OS(=O)(=O)O)[C@@H]2OS(=O)(=O)O)cc(C(=O)NC[C@H]2O[C@H](OCc3ccccc3)[C@H](NC(=O)c3ccc(NC[C@H](OS(=O)(=O)O)[C@@H](OS(=O)(=O)O)[C@H](OS(=O)(=O)O)[C@@H](COS(=O)(=O)O)OS(=O)(=O)O)c([N+](=O)[O-])c3)[C@@H](OS(=O)(=O)O)[C@@H]2OS(=O)(=O)O)c1 [Example 30, Benzene-1,3,5-tricarboxylic acid tris-[[benzyl 2,6-didesoxy-2-[4-(2,3,4,5,6-penta-O-sulfo-D-glucit-1-ylamino)-3-nitro-benzoylamino]-3,4-di-O-sulfo-a-D-glucopyranosid-6-yl]-amide] henicosasodium salt]",> 276,1.6,> 276,,
,,"O=C(NC[C@H]1O[C@H](OCc2ccccc2)[C@H](NC(=O)c2ccc(NC[C@H](OS(=O)(=O)O)[C@@H](OS(=O)(=O)O)[C@H](OS(=O)(=O)O)[C@@H](COS(=O)(=O)O)OS(=O)(=O)O)c([N+](=O)[O-])c2)[C@@H](OS(=O)(=O)O)[C@@H]1OS(=O)(=O)O)c1ccc(/C=C/c2ccc(C(=O)NC[C@H]3O[C@H](OCc4ccccc4)[C@H](NC(=O)c4ccc(NC[C@H](OS(=O)(=O)O)[C@@H](OS(=O)(=O)O)[C@H](OS(=O)(=O)O)[C@@H](COS(=O)(=O)O)OS(=O)(=O)O)c([N+](=O)[O-])c4)[C@@H](OS(=O)(=O)O)[C@@H]3OS(=O)(=O)O)cc2Cl)cc1 [Example 32, (E)-2-Chloro-stilbene-4,4'-dicarboxylic acid bis-[[benzyl 2,6-didesoxy-2-[4-(2,3,4,5,6-penta-O-sulfo-D-glucit-1-ylamino)-3-nitro-benzoylamino]-3,4-di-O-sulfo-a-D-glucopyranosid-6-yl]-amide] tetradecasodium salt]",> 387,1.4,> 387,,
> 445,> 445,"O=C(N[C@H]1[C@@H](OCc2ccccc2)O[C@H](CNC(=O)[C@H](OS(=O)(=O)O)[C@@H](OS(=O)(=O)O)[C@H](OS(=O)(=O)O)[C@@H](COS(=O)(=O)O)OS(=O)(=O)O)[C@@H](OS(=O)(=O)O)[C@@H]1OS(=O)(=O)O)c1ccc(/C=C\c2ccc(C(=O)N[C@H]3[C@@H](OCc4ccccc4)O[C@H](CNC(=O)[C@H](OS(=O)(=O)O)[C@@H](OS(=O)(=O)O)[C@H](OS(=O)(=O)O)[C@@H](COS(=O)(=O)O)OS(=O)(=O)O)[C@@H](OS(=O)(=O)O)[C@@H]3OS(=O)(=O)O)cc2)cc1 [Example 23, (Z)-stilbene-4,4'-dicarboxylic acid bis-[[benzyl 2,6-didesoxy-6-(2,3,4,5,6-penta-O-sulfo-D-gluconoylamino)-3,4-di-O-sulfo-α-D-glucopyranosid-2-yl]-amide] tetradecasodium salt]",,1.8,,,
,,"CC(=O)Nc1cc(C(=O)N[C@H]2[C@@H](OCc3ccccc3)O[C@H](CNC(=O)c3cccc(C(=O)NC[C@H]4O[C@H](OCc5ccccc5)[C@H](NC(=O)c5ccc(N(CCOS(=O)(=O)O)C[C@H](OS(=O)(=O)O)[C@@H](OS(=O)(=O)O)[C@H](OS(=O)(=O)O)[C@@H](COS(=O)(=O)O)OS(=O)(=O)O)c(NC(C)=O)c5)[C@@H](OS(=O)(=O)O)[C@@H]4OS(=O)(=O)O)c3)[C@@H](OS(=O)(=O)O)[C@@H]2OS(=O)(=O)O)ccc1N(CCOS(=O)(=O)O)C[C@H](OS(=O)(=O)O)[C@@H](OS(=O)(=O)O)[C@H](OS(=O)(=O)O)[C@@H](COS(=O)(=O)O)OS(=O)(=O)O [Example 38, Isophthalic acid bis-[[benzyl 2-[3-acetylamino-4-[(2,3,4,5,6-penta-O-sulfo-D-glucit-1-yl)-(2-sulfonyloxy-ethyl)-amino]-benzoylamino]-2,6-didesoxy-3,4-di-O-sulfo-a-D-glucopyranosid-6-yl]-amide] hexadecasodium salt]",> 368,1.8,> 368,,
,,"Biphenyl-4,4'-dicarboxylic acid bis-[[(Z)-benzyl 2,6-didesoxy-3,4-di-O-sulfo-6-(3-desoxy-2,4,5,6-tetra-0-sulfo-D-erythro-hex-2-enonoylamino)-a-D-glucopyranosid-2-yl]-amide] dodecasodium salt [Example 15]",,1.8,,> 1000,> 1000
> 401,> 401,"CC(=O)Nc1cc(C(=O)N[C@H]2[C@@H](OCc3ccccc3)O[C@H](CNC(=O)c3cccc(C(=O)NC[C@H]4O[C@H](OCc5ccccc5)[C@H](NC(=O)c5ccc(N(C)C[C@H](OS(=O)(=O)O)[C@@H](OS(=O)(=O)O)[C@H](OS(=O)(=O)O)[C@@H](COS(=O)(=O)O)OS(=O)(=O)O)c(NC(C)=O)c5)[C@@H](OS(=O)(=O)O)[C@@H]4OS(=O)(=O)O)c3)[C@@H](OS(=O)(=O)O)[C@@H]2OS(=O)(=O)O)ccc1N(C)C[C@H](OS(=O)(=O)O)[C@@H](OS(=O)(=O)O)[C@H](OS(=O)(=O)O)[C@@H](COS(=O)(=O)O)OS(=O)(=O)O [Example 37, Isophthalic acid bis-[[benzyl 2-[3-acetylamino-4-[methyl-(2,3,4,5,6-penta-O-sulfo-D-glucit-1-yl)-amino]-benzoylamino]-2,6-didesoxy-3,4-di-O-sulfo-a-D-glucopyranosid-6-yl]-amide] tetradecasodium salt]",,1.9,,,
,,"CN(C[C@H](OS(=O)(=O)O)[C@@H](OS(=O)(=O)O)[C@H](OS(=O)(=O)O)[C@@H](COS(=O)(=O)O)OS(=O)(=O)O)c1ccc(C(=O)N[C@H]2[C@@H](OCc3ccccc3)O[C@H](CNC(=O)c3cccc(C(=O)NC[C@H]4O[C@H](OCc5ccccc5)[C@H](NC(=O)c5ccc(N(C)C[C@H](OS(=O)(=O)O)[C@@H](OS(=O)(=O)O)[C@H](OS(=O)(=O)O)[C@@H](COS(=O)(=O)O)OS(=O)(=O)O)c([N+](=O)[O-])c5)[C@@H](OS(=O)(=O)O)[C@@H]4OS(=O)(=O)O)c3)[C@@H](OS(=O)(=O)O)[C@@H]2OS(=O)(=O)O)cc1[N+](=O)[O-] [Example 35, Isophthalic acid bis-[[benzyl 2,6-didesoxy-2-[4-[methyl (2,3,4,5,6-penta-O-sulfo-D-glucit-1-yl)-amino]-3-nitro-benzoylamino]-3,4-di-O-sulfo-a-D-glucopyranosid-6-yl]-amide] tetradecasodium salt]",> 404,2.5,> 404,,
,,Heparin [reference compound],,1.0,,1.9,2.7
,,"O=C(NC[C@H]1O[C@H](OCc2ccccc2)[C@H](NC(=O)c2ccc(N(CCOS(=O)(=O)O)C[C@H](OS(=O)(=O)O)[C@@H](OS(=O)(=O)O)[C@H](OS(=O)(=O)O)[C@@H](COS(=O)(=O)O)OS(=O)(=O)O)c([N+](=O)[O-])c2)[C@@H](OS(=O)(=O)O)[C@@H]1OS(=O)(=O)O)c1cccc(C(=O)NC[C@H]2O[C@H](OCc3ccccc3)[C@H](NC(=O)c3ccc(N(CCOS(=O)(=O)O)C[C@H](OS(=O)(=O)O)[C@@H](OS(=O)(=O)O)[C@H](OS(=O)(=O)O)[C@@H](COS(=O)(=O)O)OS(=O)(=O)O)c([N+](=O)[O-])c3)[C@@H](OS(=O)(=O)O)[C@@H]2OS(=O)(=O)O)c1 [Example 36, Isophthalic acid bis-[[benzyl 2,6-didesoxy-2-[4-[(2-hydroxysulfonyloxy-ethyl)-2,3,4,5,6-penta-O-sulfo-D-glucit-1-yl)-amino]-3-nitro-benzoylamino]-3,4-di-O-sulfo-a-D-glucopyranosid-6-yl]-amide] hexadecasodium salt]",> 371,2.1,> 371,,
